Results on one compound are retold here after BindingDB's records for doi:10.1016/j.bmcl.2017.07.009 (Sichuan University and Collaborative Innovation Center, 2017).

This test addresses Tyrosine-protein kinase SYK (Homo sapiens) (UniProt P43405). As to the kind of experiment: Inhibition of recombinant human full length N-terminal His6-tagged SYK expressed in baculovirus Sf21 insect cells preincubated for 5 mins followed by substrate addition after 30 to 60 mins in presence of ATP by fluorescence assay.

Broadly, the IC50 is the midpoint of a concentration-inhibition curve. As to `C=CS(=O)(=O)N1CCC[C@@H]1Cn1cc(-c2ccc3c(c2)OCO3)c2c(N)ncnc21`, the IC50 was above 10 µM.
